In patent publication US12491182B2, “Polymorphs of triazole antifungal compound PC945” (Pulmocide Limited, priority 2019, dated 2025):
Marks after values point to notes of the source that are not given here.

How the values were obtained:
Type in all cases: physicochemical
[1] = Equilibration of Forms 1 and 2, singularly and as mixtures, in MEK and THF alone and with 5% water; settings: 5-10 °C, both equilibration temperatures
Source text: The influence of the initial polymorphic composition on the fate of samples was investigated by equilibration of the either the single polymorphs or an equal mixture of both in anhydrous MEK and THF as well as in the same solvents doped with 5% water.
The results obtained (Table 13) reveal that in anhydrous media the two polymorphs retain their structural integrity, if present singularly (Table 13, Entries 1, 2, 4 and 5). […] (Table 13, Entry 4) which may be attributable to the presence of traces of moisture in a highly hygroscopic solvent.
The results observed when 5% water was admixed to the two solvents indicate that the predominance of the two forms reversed under these conditions, taking kinetic factors into account. In aqueous MEK (5% water) the single polymorphs were again unchanged for the duration of the experiment (Table 13, Entries 7 and 8). In contrast, the binary polymorphic mixture converted into Form 1 in this medium (Table 13, Entry 9). In aqueous THF (5% water) the dominance of Form 1 as the most preferred polymorph was especially evident. In this environment the suspension of Form 1 remained unchanged (Table 13, Entry 10), consistent with the outcome observed for aq MEK under the same conditions.
However, in THF doped with 5% water, both the suspension comprising the binary mixture, as well as that composed of the Form 2 polymorph alone, were transformed into suspensions containing only Form 1 (Table 13, Entries 11 and 12).

[2] = Fate of Form 2 slurried in single solvents, acetone, water and acetone/water mixtures, XRPD
Protocol: In order to determine the influence of water in determining the output from such conditioning experiments, the behaviour of the Form 2 polymorph was examined in nominally dry organic media and also in monophasic, aqueous mixtures with water miscible solvents.
The same result was also obtained when the conditioning medium was either neat acetone (Table 9, Entries 1 and 6) or water alone (Table 9, Entries 5 and 10). However, in acetone-water mixtures at 50° C. over 24 hr there was clear evidence that in two instances Form 2 had been transformed into Form 1 (Table 9, Entries 7 and 9).

[3] = Fate of Form 2 slurried in MEK/water mixtures, XRPD; settings: MEK, 25 °C, 24 hours
Protocol: (Table 12). It was observed that Form 2 integrity was maintained for at least 24 hours at the lower temperature until the water content exceeded 6%, despite an increase in solubility of Compound I from 19 to 30 mg/ml (data not shown).

[4] = Fate of Form 2 slurried in 1,4-dioxane/water mixtures, XRPD; settings: 1,4-dioxane
Protocol: In the presence of 10% water the Form 1 polymorph is evident in the slurry mixture within an hour at 25° C. […] This ternary system behaved similarly at 50° C. However, at the higher temperature of 65° C. the rate of turnover is increased such that Form 1 was generated after 3 hr. Consistent with the data obtained from the experiments described above, increasing the proportion of water to 80% in this system was sufficient to halt the polymorphic interconversion at 25° C., 50° C. and even at 65° C.

[5] = Fate of Form 2 slurried in MEK/water mixtures, XRPD; settings: MEK, 50 °C, 24 hour time point

Question: Which “Form by XRPD Post Equilibration” value ([1]; MEK (anhydrous)) does the source give for `Cc1cc(N2CCN(c3ccc(C(=O)Nc4ccc(F)cc4)cc3)CC2)ccc1OC[C@@H]1CO[C@@](Cn2cncn2)(c2ccc(F)cc2F)C1` [Form 1, 4-(4-(4-(((3R,5R)-5-((1H-1,2,4-triazol-1-yl)methyl)-5-(2,4-difluorophenyl)tetrahydrofuran-3-yl)methoxy)-3-methylphenyl)piperazin-1-yl)-N-(4-fluorophenyl)benzamide] here?
Answer: The value was 1.

Question: What about the “Form by XRPD Post Equilibration” value ([1]; MEK/5% Water) of the same compound?
Answer: The value was 1.

Question: What about the “Form by XRPD Post Equilibration” value ([1]; THF (anhydrous), Form 1 input: some evidence of Form 2 at 10 °C) of the same compound?
Answer: The value was 1^b.

Question: And the “Form by XRPD Post Equilibration” value ([1]; THF/5% Water)?
Answer: The value was 1.

Question: Which “Polymorphic Form by XRPD” value ([2]; acetone, water 0 vol %, 25 °C, 1 and 4 hr) does the source give for `Cc1cc(N2CCN(c3ccc(C(=O)Nc4ccc(F)cc4)cc3)CC2)ccc1OC[C@@H]1CO[C@@](Cn2cncn2)(c2ccc(F)cc2F)C1` [Form 2, 4-(4-(4-(((3R,5R)-5-((1H-1,2,4-triazol-1-yl)methyl)-5-(2,4-difluorophenyl)tetrahydrofuran-3-yl)methoxy)-3-methylphenyl)piperazin-1-yl)-N-(4-fluorophenyl)benzamide] here?
Answer: The value was 2.

Question: And the “Polymorphic Form by XRPD” value ([2]; acetone, water 0 vol %, 25 °C, 24 hr)?
Answer: Its value is 2.

Question: And the “Polymorphic Form by XRPD” value ([2]; acetone, water 0 vol %, 50 °C, 1 and 4 hr)?
Answer: The value was 2.

Question: And the “Polymorphic Form by XRPD” value ([2]; acetone, water 0 vol %, 50 °C, 24 hr)?
Answer: Its value is 2.

Question: And the “Polymorphic Form by XRPD” value ([2]; acetone/water, water 10 vol %, 25 °C, 1 and 4 hr)?
Answer: Its value is 2.

Question: What about the “Polymorphic Form by XRPD” value ([2]; acetone/water, water 10 vol %, 25 °C, 24 hr) of the same compound?
Answer: The value was 2.

Question: And the “Polymorphic Form by XRPD” value ([2]; acetone/water, water 10 vol %, 50 °C, 1 and 4 hr)?
Answer: Its value is 2.

Question: And the “Polymorphic Form by XRPD” value ([2]; acetone/water, water 10 vol %, 50 °C, 24 hr)?
Answer: The value was 1.

Question: And the “Polymorphic Form by XRPD” value ([2]; acetone/water, water 20 vol %, 25 °C, 1 and 4 hr)?
Answer: Its value is 2.

Question: And the “Polymorphic Form by XRPD” value ([2]; acetone/water, water 20 vol %, 25 °C, 24 hr)?
Answer: The value was 2.

Question: And the “Polymorphic Form by XRPD” value ([2]; acetone/water, water 20 vol %, 50 °C, 1 and 4 hr)?
Answer: The value was 2.

Question: What about the “Polymorphic Form by XRPD” value ([2]; acetone/water, water 20 vol %, 50 °C, 24 hr) of the same compound?
Answer: Its value is 2.

Question: What about the “Polymorphic Form by XRPD” value ([2]; acetone/water, water 40 vol %, 25 °C, 1 and 4 hr) of the same compound?
Answer: Its value is 2.

Question: And the “Polymorphic Form by XRPD” value ([2]; acetone/water, water 40 vol %, 25 °C, 24 hr)?
Answer: Its value is 2.

Question: What about the “Polymorphic Form by XRPD” value ([2]; acetone/water, water 40 vol %, 50 °C, 1 and 4 hr) of the same compound?
Answer: The value was 2.

Question: And the “Polymorphic Form by XRPD” value ([2]; acetone/water, water 40 vol %, 50 °C, 24 hr)?
Answer: Its value is 1.

Question: What about the “change in crystal structure on suspension in sole solvent” value ([2]; heptane, TBME, toluene or cyclohexane as sole solvent, 25 or 50 °C, 24 hr) of the same compound?
Answer: The value was “no perceptible change in crystal structure”.

Question: What about the “Polymorphic Form by XRPD” value ([2]; water 100 vol %, 25 °C, 1 and 4 hr) of the same compound?
Answer: Its value is 2.

Question: And the “Polymorphic Form by XRPD” value ([2]; water 100 vol %, 25 °C, 24 hr)?
Answer: Its value is 2.

Question: And the “Polymorphic Form by XRPD” value ([2]; water 100 vol %, 50 °C, 1 and 4 hr)?
Answer: The value was 2.

Question: What about the “Polymorphic Form by XRPD” value ([2]; water 100 vol %, 50 °C, 24 hr) of the same compound?
Answer: Its value is 2.

Question: What about the “Polymorphic Form by XRPD” value ([3]; water 1 % vol) of the same compound?
Answer: Its value is 2.

Question: And the “Polymorphic Form by XRPD” value ([3]; water 2 % vol)?
Answer: Its value is 2.

Question: And the “Polymorphic Form by XRPD” value ([3]; water 4 % vol)?
Answer: Its value is 2.

Question: What about the “Polymorphic Form by XRPD” value ([3]; water 6 % vol) of the same compound?
Answer: Its value is 2.

Question: What about the “Polymorphic Form by XRPD” value ([3]; water 8 % vol) of the same compound?
Answer: Its value is 1.

Question: And the “Polymorphic Form by XRPD” value ([4]; 10% water, 25 °C, 1 hr, trace of Form 2 remaining)?
Answer: Its value is 1^†.

Question: What about the “Polymorphic Form by XRPD” value ([4]; 10% water, 25 °C, 3 hr, trace of Form 2 remaining) of the same compound?
Answer: Its value is 1^†.

Question: What about the “Polymorphic Form by XRPD” value ([4]; 10% water, 25 °C, 6 hr, trace of Form 2 remaining) of the same compound?
Answer: Its value is 1^†.

Question: And the “Polymorphic Form by XRPD” value ([4]; 10% water, 25 °C, 24 hr, trace of Form 2 remaining)?
Answer: The value was 1^†.

Question: And the “Polymorphic Form by XRPD” value ([4]; 10% water, 50 °C, 24 hr)?
Answer: The value was 1.

Question: What about the “Polymorphic Form by XRPD” value ([4]; 40% water, 25 °C, 1 hr) of the same compound?
Answer: Its value is 2.

Question: And the “Polymorphic Form by XRPD” value ([4]; 40% water, 25 °C, 3 hr)?
Answer: The value was 2.

Question: And the “Polymorphic Form by XRPD” value ([4]; 40% water, 25 °C, 6 hr)?
Answer: The value was 2.

Question: What about the “Polymorphic Form by XRPD” value ([4]; 40% water, 25 °C, 24 hr) of the same compound?
Answer: The value was 1.

Question: And the “Polymorphic Form by XRPD” value ([4]; 40% water, 50 °C, 1 hr)?
Answer: Its value is 2.

Question: What about the “Polymorphic Form by XRPD” value ([4]; 40% water, 50 °C, 3 hr) of the same compound?
Answer: The value was 2.

Question: What about the “Polymorphic Form by XRPD” value ([4]; 40% water, 50 °C, 6 hr) of the same compound?
Answer: The value was 2.

Question: What about the “Polymorphic Form by XRPD” value ([4]; 40% water, 50 °C, 24 hr) of the same compound?
Answer: The value was 1.

Question: And the “Polymorphic Form by XRPD” value ([4]; 40% water, 65 °C, 1 hr)?
Answer: Its value is 2.

Question: And the “Polymorphic Form by XRPD” value ([4]; 40% water, 65 °C, 3 hr)?
Answer: Its value is 1.

Question: What about the “Polymorphic Form by XRPD” value ([4]; 40% water, 65 °C, 6 hr) of the same compound?
Answer: The value was 1.

Question: What about the “Polymorphic Form by XRPD” value ([4]; 40% water, 65 °C, 24 hr) of the same compound?
Answer: The value was 1.

Question: What about the “Polymorphic Form by XRPD” value ([4]; 80% water, 25 °C, 1 hr) of the same compound?
Answer: Its value is 2.

Question: And the “Polymorphic Form by XRPD” value ([4]; 80% water, 25 °C, 3 hr)?
Answer: The value was 2.

Question: What about the “Polymorphic Form by XRPD” value ([4]; 80% water, 25 °C, 6 hr) of the same compound?
Answer: Its value is 2.

Question: What about the “Polymorphic Form by XRPD” value ([4]; 80% water, 25 °C, 24 hr) of the same compound?
Answer: The value was 2.

Question: And the “Polymorphic Form by XRPD” value ([4]; 80% water, 50 °C, 1 hr)?
Answer: Its value is 2.

Question: What about the “Polymorphic Form by XRPD” value ([4]; 80% water, 50 °C, 3 hr) of the same compound?
Answer: The value was 2.

Question: What about the “Polymorphic Form by XRPD” value ([4]; 80% water, 50 °C, 6 hr) of the same compound?
Answer: The value was 2.

Question: And the “Polymorphic Form by XRPD” value ([4]; 80% water, 50 °C, 24 hr)?
Answer: Its value is 2.

Question: What about the “Polymorphic Form by XRPD” value ([4]; 80% water, 65 °C, 1 hr) of the same compound?
Answer: Its value is 2.

Question: And the “Polymorphic Form by XRPD” value ([4]; 80% water, 65 °C, 3 hr)?
Answer: Its value is 2.

Question: What about the “Polymorphic Form by XRPD” value ([4]; 80% water, 65 °C, 6 hr) of the same compound?
Answer: The value was 2.

Question: And the “Polymorphic Form by XRPD” value ([4]; 80% water, 65 °C, 24 hr)?
Answer: Its value is 2.

Question: What about the “Polymorphic Form by XRPD” value ([5]; water 1 % vol) of the same compound?
Answer: Its value is 2.

Question: What about the “Polymorphic Form by XRPD” value ([5]; water 2 % vol) of the same compound?
Answer: The value was 2.

Question: And the “Polymorphic Form by XRPD” value ([5]; water 4 % vol)?
Answer: Its value is 1.

Question: And the “Polymorphic Form by XRPD” value ([5]; water 6 % vol)?
Answer: The value was 1.

Question: What about the “Polymorphic Form by XRPD” value ([5]; water 8 % vol) of the same compound?
Answer: The value was 1.
